In patent US20140323418A1, “SELECTIVE KINASE INHIBITORS” (PORTOLA PHARMACEUTICALS, INC., priority 2011, published 2014) one finds IC50 data, which are given here for 35 molecules.

This assay concerns the target T1, full length active recombinant SYK enzyme (Homo sapiens, UniProt P43405).
T1 construct: full length active recombinant SYK enzyme (Millipore, Calif.); purchased Millipore
The assay is described as follows: Inhibition of Syk tyrosine phosphorylation activity (LANCE TR-FRET kinase assay). It counts as biochemical. As to conditions: 1 nM SYK, 550 nM substrate, 100 μM ATP, 1 hour room temperature.

SMILES strings stand for the structures.

On to `NC(=O)c1cnc(N[C@@H]2CCOC[C@@H]2N)nc1Nc1ccc(Cl)cc1` [Example 51, 2-(((3R,4R)-3-aminotetrahydro-2H-pyran-4-yl)amino)-4-((4-chlorophenyl)amino)pyrimidine-5-carboxamide], for which the IC50 (usually the concentration needed to halve the response being measured) lay in the range of 0.01 to 0.1 µM. For `CC[C@H](Nc1ncc(C(N)=O)c(Nc2cccc(C)c2)n1)C1(N)CC1` [Example 128, (S)-2-(1-(1-aminocyclopropyl)propylamino)-4-(m-tolylamino)pyrimidine-5-carboxamide] the value was 0.1 to 1 µM; for `COc1cccc(Nc2nc(N[C@H](CC(C)C)C(N)=O)ncc2C(N)=O)c1` [Example 62, (R)-2-((1-amino-4-methyl-1-oxopentan-2-yl)amino)-4-((3-methoxyphenyl)amino)pyrimidine-5-carboxamide], 0.01 to 0.1 µM; for `CC[C@@H](Nc1ncc(C(N)=O)c(Nc2ccc(-c3cnns3)cc2)n1)C(N)=O` [Example 59, (R)-4-((4-(1,2,3-thiadiazol-5-yl)phenyl)amino)-2-((1-amino-1-oxobutan-2-yl)amino)pyrimidine-5-carboxamide], 0.01 to 0.1 µM. To `NC(=O)c1cnc(N[C@@H]2CCOC[C@@H]2N)nc1Nc1ccc2scnc2c1` [Example 178, 2-((3R,4R)-3-aminotetrahydro-2H-pyran-4-ylamino)-4-(benzo[d]thiazol-5-ylamino)pyrimidine-5-carboxamide] belongs 0.01 to 0.1 µM. For `NC(=O)c1cnc(N[C@@H]2CCCC[C@@H]2N)nc1Nc1cncc(-n2cccn2)c1` [Example 48, 4-((5-(1H-pyrazol-1-yl)pyridin-3-yl)amino)-2-(((1R,2S)-2-aminocyclohexyl)amino)pyrimidine-5-carboxamide] the value was 0.01 to 0.1 µM. With `Cn1ccc2c(Nc3nc(N[C@@H]4CCNC4)ncc3C(N)=O)cccc21` [Example 212, (R)-4-((1-methyl-1H-indol-4-yl)amino)-2-(pyrrolidin-3-ylamino)pyrimidine-5-carboxamide], the IC50 lay in the range of 0.01 to 0.1 µM.

`Cc1cccc(Nc2nc(N[C@@H]3CC[C@@H](C(=O)N4CC(F)(F)C4)C[C@@H]3N)ncc2C(N)=O)c1` (racemic) [Example 192, 2-((1R,2S,4R)-2-amino-4-(3,3-difluoroazetidine-1-carbonyl)cyclohexylamino)-4-(m-tolylamino)pyrimidine-5-carboxamide]: the IC50 fell in the range of 0.01 to 0.1 µM. On to `NC(=O)c1cnc(N[C@@H]2CCCC(F)(F)[C@@H]2N)nc1Nc1csc2ncccc12` [Example 31, 2-(((1R,2R)-2-amino-3,3-difluorocyclohexyl)amino)-4-(thieno[2,3-b]pyridin-3-ylamino)pyrimidine-5-carboxamide], for which the IC50 was 0.01 to 0.1 µM. For `NC(=O)c1cnc(N[C@@H]2CCOC[C@@H]2N)nc1Nc1ccccc1` [Example 52, 2-(((3R,4R)-3-aminotetrahydro-2H-pyran-4-yl)amino)-4-(phenylamino)pyrimidine-5-carboxamide] the value was 0.1 to 1 µM; for `NC(=O)c1cnc(N[C@@H]2CCCC[C@@H]2NCCO)nc1Nc1cccc(-n2nccn2)c1` [Example 12, 4-(3-(2H-1,2,3-triazol-2-yl)phenylamino)-2-((1R,2S)-2-(2-hydroxyethylamino)cyclohexylamino)pyrimidine-5-carboxamide], 0.1 to 1 µM.

Take `Cc1cc(Nc2nc(N[C@@H]3CCCC[C@@H]3N)ncc2C(N)=O)sn1` [Example 49, 2-(((1R,2S)-2-aminocyclohexyl)amino)-4-((3-methylisothiazol-5-yl)amino)pyrimidine-5-carboxamide]: the IC50 lay within 0.001 to 0.01 µM. Turning to `NC(=O)c1cnc(N[C@H]2CCCC(F)(F)[C@H]2N)nc1Nc1cccc(-n2nccn2)c1` [Example 19], the IC50 was 0.1 to 1 µM. Consider `NC(=O)c1cnc(N[C@H]2[C@@H](N)CCCC2(F)F)nc1Nc1cccc(-n2cccn2)c1` [Example 34, 4-((3-(1H-pyrazol-1-yl)phenyl)amino)-2-(((1S,6S)-6-amino-2,2-difluorocyclohexyl)amino)pyrimidine-5-carboxamide], for which the IC50 lay in the range of 0.001 to 0.01 µM. To `NC(=O)c1cnc(N[C@H](C2CC2)C2(N)CC2)nc1Nc1ccc2ncccc2c1` [Example 155, (R)-2-(1-(1-aminocyclopropyl)(cyclopropyl)methylamino)-4-(quinolin-6-ylamino)pyrimidine-5-carboxamide] belongs 0.001 to 0.01 µM; to `NC(=O)c1cnc(N[C@@H]2CCCC[C@@H]2N)nc1Nc1csc2ncccc12` [Example 44, 2-(((1R,2S)-2-aminocyclohexyl)amino)-4-(thieno[2,3-b]pyridin-3-ylamino)pyrimidine-5-carboxamide], 0.001 to 0.01 µM.

As for `COc1cncc(Nc2nc(N[C@@H]3CCCC[C@@H]3N)ncc2C(N)=O)c1` [Example 47, 2-(((1R,2S)-2-aminocyclohexyl)amino)-4-((5-methoxypyridin-3-yl)amino)pyrimidine-5-carboxamide], the IC50 was 0.01 to 0.1 µM. To `NC(=O)c1cnc(N[C@@H](C2CC2)C2(N)CC2)nc1Nc1cccc(-c2ncccn2)c1` [Example 134, (S)-2-(1-(1-aminocyclopropyl)(cyclopropyl)methylamino)-4-(3-(pyrimidin-2-yl)phenylamino)pyrimidine-5-carboxamide] belongs 0.1 to 1 µM; to `NC(=O)c1cnc(N[C@@H]2CCCC[C@@H]2N)nc1Nc1cncc(F)c1` [Example 45], 0.01 to 0.1 µM; to `CC[C@@H](Nc1ncc(C(N)=O)c(Nc2cc(-n3cccn3)cc(-n3cccn3)c2)n1)C(N)=O` [Example 250, (R)-2-((1-amino-1-oxobutan-2-yl)amino)-4-((3,5-di(1H-pyrazol-1-yl)phenyl)amino)pyrimidine-5-carboxamide], 0.1 to 1 µM. For `Cc1cncc(Nc2nc(N[C@@H]3CCCC[C@@H]3N)ncc2C(N)=O)c1` [Example 46, 2-(((1R,2S)-2-aminocyclohexyl)amino)-4-((5-methylpyridin-3-yl)amino)pyrimidine-5-carboxamide] the value was 0.01 to 0.1 µM; for `NC(=O)c1cnc(N[C@@H]2CCC[C@H](F)[C@@H]2N)nc1Nc1ccc2ncsc2c1` [Example 239, 2-((1R,2R,3S)-2-amino-3-fluorocyclohexylamino)-4-(benzo[d]thiazol-6-ylamino)pyrimidine-5-carboxamide], 0.01 to 0.1 µM; for `Cn1ccc2c(Nc3nc(NCC(N)C(C)(F)F)ncc3C(N)=O)cccc21` (centres unmarked) [Example 104, 2-(2-amino-3,3-difluorobutylamino)-4-(1-methyl-1H-indol-4-ylamino)pyrimidine-5-carboxamide], 0.01 to 0.1 µM. For `NC(=O)c1cnc(N[C@H]2CCCNC2)nc1Nc1cnc2ccccc2c1` [Example 215, (S)-2-(piperidin-3-ylamino)-4-(quinolin-3-ylamino)pyrimidine-5-carboxamide] the value was 0.1 to 1 µM; for `CC(C)(C(=O)O)c1cccc(Nc2nc(N[C@@H]3CCCC[C@@H]3N)ncc2C(N)=O)c1` [Example 203], 0.1 to 1 µM; for `CC[C@@H](Nc1ncc(C(N)=O)c(Nc2cccc(OC)c2)n1)C(N)=O` [Example 60, (R)-2-((1-amino-1-oxobutan-2-yl)amino)-4-((3-methoxyphenyl)amino)pyrimidine-5-carboxamide], 0.1 to 1 µM. In the case of `CCc1c(C)c2c(Nc3nc(N[C@@H]4CCCC[C@@H]4N)ncc3C(N)=O)cccc2n1C` [Example 100, 2-((1R,2S)-2-aminocyclohexylamino)-4-(2-ethyl-1,3-dimethyl-1H-indol-4-ylamino)pyrimidine-5-carboxamide], the IC50 lay in the range of 0.1 to 1 µM. Regarding `Cn1ccc2c(Nc3nc(NCC4CC4)ncc3C(N)=O)cccc21` [Example 112, 2-(cyclopropylmethylamino)-4-(1-methyl-1H-indol-4-ylamino)pyrimidine-5-carboxamide], the IC50 lay in the range of 0.1 to 1 µM.

With `NC(=O)c1cnc(N[C@@H]2CCCC[C@@H]2N)nc1Nc1cc(Br)cc(-n2nccn2)c1` [Example 21, 2-((1R,2S)-2-aminocyclohexylamino)-4-(3-bromo-5-(2H-1,2,3-triazol-2-yl)phenylamino)pyrimidine-5-carboxamide], the IC50 was 0.01 to 0.1 µM. For `NC(=O)c1cnc(N[C@H](C2CC2)C2(N)CC2)nc1Nc1ccc2ncsc2c1` [Example 167, (R)-2-(1-(1-aminocyclopropyl)(cyclopropyl)methylamino)-4-(benzo[d]thiazol-6-ylamino)pyrimidine-5-carboxamide] the value was 0.001 to 0.01 µM. For `CCn1ccc2c(Nc3nc(N[C@@H]4CCCC(F)(F)[C@@H]4N)ncc3C(N)=O)cccc21` [Example 92, 2-((1R,2R)-2-amino-3,3-difluorocyclohexylamino)-4-(1-ethyl-1H-indol-4-ylamino)pyrimidine-5-carboxamide], the half-inhibitory concentration (IC50) lay within 0.01 to 0.1 µM.

Consider `NC(=O)c1cnc(N[C@@H]2CCCC[C@@H]2NC=O)nc1Nc1cccc(-n2nccn2)c1` [Example 10, 4-(3-(2H-1,2,3-triazol-2-yl)phenylamino)-2-((1R,2S)-2-formamidocyclohexylamino)pyrimidine-5-carboxamide], for which the IC50 was in the range of 0.1 to 1 µM. For `Cc1nsc(Nc2nc(N[C@@H]3CCCC[C@@H]3N)ncc2C(N)=O)c1I` [Example 231, 2-(((1R,2S)-2-aminocyclohexyl)amino)-4-((4-iodo-3-methylisothiazol-5-yl)amino)pyrimidine-5-carboxamide] the value was 0.01 to 0.1 µM; for `CN1C(=O)Cc2c(Nc3nc(N[C@@H]4CCCC[C@@H]4N)ncc3C(N)=O)cccc21` [Example 96, 2-((1R,2S)-2-aminocyclohexylamino)-4-(1-methyl-2-oxoindolin-4-ylamino)pyrimidine-5-carboxamide], 0.1 to 1 µM; for `NC(=O)c1cnc(N[C@@H]2CCCC(F)(F)[C@@H]2N)nc1Nc1cccc(Cl)c1` [Example 28, 2-(((1R,2R)-2-amino-3,3-difluorocyclohexyl)amino)-4-((3-chlorophenyl)amino)pyrimidine-5-carboxamide], 0.01 to 0.1 µM.
